This passage reports EC50 results from patent US9562053B2, “Benzo-fused heterocyclic derivatives useful as agonists of GPR120” (Janssen Pharmaceutica NV, priority 2013, dated 2017).

pEC50: −log10 of the molar value.

The target of the assay is T1, long form of human GPR120 (Homo sapiens, UniProt Q5NUL3).
T1 construct: host or cells: PathHunter CHO-K1 GPR120 β-Arrestin Cell Line
T1 sequence (Q5NUL3 1-377 isoform Q5NUL3-1): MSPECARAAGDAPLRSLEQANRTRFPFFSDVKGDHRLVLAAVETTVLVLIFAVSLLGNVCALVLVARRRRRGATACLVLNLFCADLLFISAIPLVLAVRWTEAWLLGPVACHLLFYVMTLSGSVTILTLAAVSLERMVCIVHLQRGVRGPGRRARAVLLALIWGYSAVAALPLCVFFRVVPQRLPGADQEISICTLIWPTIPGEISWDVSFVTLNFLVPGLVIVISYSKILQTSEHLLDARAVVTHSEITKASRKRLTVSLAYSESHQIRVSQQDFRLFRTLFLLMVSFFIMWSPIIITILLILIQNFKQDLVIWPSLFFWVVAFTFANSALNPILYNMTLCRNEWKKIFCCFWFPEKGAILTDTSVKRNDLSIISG
The assay is described as follows: Human GPR120 DiscoveRx PathHunter Beta-Arrestin Assay, Procedure β-arrestin A (3000 cells per well). In kind it is cell-based. The note with it: read-out: GPR120 B-arrestin A EC50. An outline of the steps: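 PathHunter CHO-K1 cells with long-form receptor, 3000/well, seeded overnight at 37 °C; equilibrated 60 min at 37 °C in HBSS/20 mM HEPES/0.1% BSA, pH 7.4. Compound serial dilutions (25–0.012 μM) added for 90 min at 37 °C, detection 60 min at room temperature, luminescence read; EC50 from % of positive control, Hill slope fixed at 1.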
What is called pEC50 is the negative decadic logarithm of the EC50, by convention in mol/L. On to `Cc1c(CCC(=O)O)ccc(OCc2cc(Cl)cc3cn(C)nc23)c1C` [Compound 8, 3-{4-[(5-Chloro-2-methyl-2H-indazol-7-yl)methoxy]-2,3-dimethylphenyl}propanoic acid], for which the pEC50 was 6.21.
As for `CCc1cc2cc(Cl)cc(COc3ccc(CCC(=O)O)c4c3CCC4)c2o1` [Compound 54, 3-{7-[(5-Chloro-2-ethyl-1-benzofuran-7-yl)methoxy]-2,3-dihydro-1H-inden-4-yl}propanoic acid], the figure is 6.37.
As for `Cc1cc2cc3c(c(COc4ccc(CCC(=O)O)c(C)c4C)c2o1)OC(F)(F)O3` [Compound 89, 3-{4-[(2,2-Difluoro-6-methylfuro[2,3-f][1,3]benzodioxol-4-yl)methoxy]-2,3-dimethylphenyl}propanoic acid], the figure is 6.92; as for `CCc1cc2cc(Cl)c(OC(C)C)c(COc3ccc(CCC(=O)O)c(C)c3C)c2o1` [Compound 65, 3-(4-{[5-Chloro-2-ethyl-6-(1-methylethoxy)-1-benzofuran-7-yl]methoxy}-2,3-dimethylphenyl)propanoic acid], 6.62.
The same measure for `CCc1cc2cc(F)cc(COc3c(F)cc(CCC(=O)O)cc3F)c2o1` [Compound 17, 3-{4-[(2-Ethyl-5-fluoro-1-benzofuran-7-yl)methoxy]-3,5-difluorophenyl}propanoic acid]: 6.34.
For the compound `CCCc1cc2cc(Cl)cc(COc3ccc(CCC(=O)O)c(C)c3C#N)c2o1` [Compound 41, 3-{4-[(5-Chloro-2-propyl-1-benzofuran-7-yl)methoxy]-3-cyano-2-methylphenyl}propanoic acid], the pEC50 was 6.20.
As for `Cc1nc2c(COc3ccc(CCC(=O)O)c(C)c3C)cc(Cl)cc2s1` [Compound 98, 3-{4-[(6-Chloro-2-methyl-1,3-benzothiazol-4-yl)methoxy]-2,3-dimethylphenyl}propanoic acid], the figure is 6.81; as for `Cc1c(CCC(=O)O)ccc(OCc2cc(OC(F)(F)F)cc3cc(CC(F)F)oc23)c1C` [Compound 96, 3-(4-{[2-(2,2-Difluoroethyl)-5-(trifluoromethoxy)-1-benzofuran-7-yl]methoxy}-2,3-dimethylphenyl)propanoic acid], 6.83; as for `Cc1oc2cccc(COc3ccc(CCC(=O)O)c(C)c3C)c2c1C` [Compound 60, 3-{4-[(2,3-Dimethyl-1-benzofuran-4-yl)methoxy]-2,3-dimethylphenyl}propanoic acid], 6.15.
As for `Cc1c(CCC(=O)O)ccc(OCc2cc(F)cc3cc(C#N)oc23)c1C` [Compound 49, 3-{4-[(2-Cyano-5-fluoro-1-benzofuran-7-yl)methoxy]-2,3-dimethylphenyl}propanoic acid], the figure is 6.29.
As for `CCCc1cc2cc(I)cc(COc3ccc(CCC(=O)O)c(C)c3C)c2o1` [Compound 47, 3-{4-[(5-Iodo-2-propyl-1-benzofuran-7-yl)methoxy]-2,3-dimethylphenyl}propanoic acid], the figure is 6.71; as for `Cc1c(CCC(=O)O)ccc(OCc2cc(Cl)cc3cc(C=CF)oc23)c1C` (mixture of isomers) [Compound 88, 3-(4-((5-Chloro-2-(2-fluorovinyl)benzofuran-7-yl)methoxy)-2,3-dimethylphenyl)propanoic acid], 6.23.
On to `CCCc1cc2cc(Cl)cc(COc3ccc(CCC(=O)O)c(C)c3C)c2o1` [Compound 31, 3-{4-[(5-Chloro-2-propyl-1-benzofuran-7-yl)methoxy]-2,3-dimethylphenyl}propanoic acid], for which the pEC50 is 6.63.
The same measure for `CCOc1cc(COc2ccc(CCC(=O)O)c(C)c2C)c2oc(CC)cc2c1` [Compound 29, 3-{4-[(5-Ethoxy-2-ethyl-1-benzofuran-7-yl)methoxy]-2,3-dimethylphenyl}propanoic acid]: 6.21.
For the compound `CCc1cc2cc(Cl)cc(COc3ccc(CCC(=O)O)c(C)c3C)c2o1` [Compound 11, 3-{4-[(5-Chloro-2-ethyl-1-benzofuran-7-yl)methoxy]-2,3-dimethylphenyl}propanoic acid], the pEC50 is 6.55.
The same measure for `CCc1cc2cc(OC(F)(F)F)cc(COc3ccc(CCC(=O)O)c(C)c3C)c2o1` [Compound 12, 3-(4-{[2-Ethyl-5-(trifluoromethoxy)-1-benzofuran-7-yl]methoxy}-2,3-dimethylphenyl)propanoic acid]: 6.82; for `Cc1cc2c(F)c(OC(F)(F)F)c(F)c(COc3ccc(CCC(=O)O)c(C)c3C)c2o1` [Compound 71, 3-(4-{[4,6-Difluoro-2-methyl-5-(trifluoromethoxy)-1-benzofuran-7-yl]methoxy}-2,3-dimethylphenyl)propanoic acid]: 7.35.
The same measure for `Cc1oc2cc(Cl)cc(COc3ccc(CCC(=O)O)c(C)c3C)c2c1C` [Compound 80, 3-{4-[(6-Chloro-2,3-dimethyl-1-benzofuran-4-yl)methoxy]-2,3-dimethylphenyl}propanoic acid]: 6.60; for `Cc1cc2cc(OC(F)F)cc(COc3ccc(CCC(=O)O)c(C)c3C)c2o1` [Compound 76, 3-(4-{[5-(Difluoromethoxy)-2-methyl-1-benzofuran-7-yl]methoxy}-2,3-dimethylphenyl)propanoic acid]: 6.84.
As for `Cc1cc2c(F)c(OC(F)(F)F)c(F)c(COc3ccc(CCC(=O)O)c(F)c3F)c2o1` [Compound 75, 3-(4-{[4,6-Difluoro-2-methyl-5-(trifluoromethoxy)-1-benzofuran-7-yl]methoxy}-2,3-difluorophenyl)propanoic acid], the figure is 6.40; as for `Cc1cc2cc(Cl)cc(COc3ccc(CCC(=O)O)c(C)c3C)c2o1` [Compound 78, 3-{4-[(5-Chloro-2-methyl-1-benzofuran-7-yl)methoxy]-2,3-dimethylphenyl}propanoic acid], 6.92; as for `Cc1oc2c(COc3ccc(CCC(=O)O)c(C)c3C)cc(F)cc2c1F` [Compound 5, 3-{4-[(3,5-Difluoro-2-methyl-1-benzofuran-7-yl)methoxy]-2,3-dimethylphenyl}propanoic acid], 6.02.
Turning to `Cc1cc2cc3c(c(COc4ccc(CCC(=O)O)c(C)c4C)c2o1)OCO3` [Compound 82, 3-{2,3-Dimethyl-4-[(6-methylfuro[2,3-f][1,3]benzodioxol-4-yl)methoxy]phenyl}propanoic acid], the pEC50 was 6.07.
As for `CCCc1cc2cc(OC(F)F)cc(COc3ccc(CCC(=O)O)c(C)c3C)c2o1` [Compound 77, 3-(4-{[5-(Difluoromethoxy)-2-propyl-1-benzofuran-7-yl]methoxy}-2,3-dimethylphenyl)propanoic acid], the figure is 6.75; as for `Cc1c(CCC(=O)O)ccc(OCc2cc(Cl)cc3cnn(C)c23)c1C` [Compound 7, 3-{4-[(5-Chloro-1-methyl-1H-indazol-7-yl)methoxy]-2,3-dimethylphenyl}propanoic acid], 6.97.
As for `Cc1c(CCC(=O)O)ccc(OCc2cc(OC(F)(F)F)cc3cc(C=CF)oc23)c1C` (mixture of isomers) [Compound 97, 3-(4-{[2-(2-Fluoroethenyl)-5-(trifluoromethoxy)-1-benzofuran-7-yl]methoxy}-2,3-dimethylphenyl)propanoic acid], the pEC50 is 6.77.
The same measure for `Cc1cc2cc(F)cc(COc3ccc(CCC(=O)O)c(C)c3C)c2o1` [Compound 2, 3-{4-[(5-Fluoro-2-methyl-1-benzofuran-7-yl)methoxy]-2,3-dimethylphenyl}propanoic acid]: 6.43; for `Cc1cc2cc(OC(F)(F)F)cc(COc3ccc(CCC(=O)O)c4c3CCC4)c2o1` [Compound 55, 3-(7-{[2-Methyl-5-(trifluoromethoxy)-1-benzofuran-7-yl]methoxy}-2,3-dihydro-1H-inden-4-yl)propanoic acid]: 7.14; for `Cc1c(CCC(=O)O)ccc(OCc2cc(F)cc3cc(C(F)(F)F)oc23)c1C` [Compound 4, 3-(4-{[5-Fluoro-2-(trifluoromethyl)-1-benzofuran-7-yl]methoxy}-2,3-dimethylphenyl)propanoic acid]: 5.28.
As for `Cc1cc2cc(Cl)c(C)c(COc3ccc(CCC(=O)O)c(C)c3C)c2o1` [Compound 85, 3-{4-[(5-Chloro-2,6-dimethyl-1-benzofuran-7-yl)methoxy]-2,3-dimethylphenyl}propanoic acid], the figure is 6.62.
The same measure for `CCc1cc2cc(F)cc(COc3ccc(CCC(=O)O)c(C)c3C)c2o1` [Compound 3, 3-{4-[(2-Ethyl-5-fluoro-1-benzofuran-7-yl)methoxy]-2,3-dimethylphenyl}propanoic acid]: 6.49.
Consider `CCc1cc2cc(Cl)c(OC)c(COc3ccc(CCC(=O)O)c(C)c3C)c2o1` [Compound 44, 3-{4-[(5-Chloro-2-ethyl-6-methoxy-1-benzofuran-7-yl)methoxy]-2,3-dimethylphenyl}propanoic acid], for which the pEC50 was 6.64.
With `Cc1c(CCC(=O)O)ccc(OCc2cc(F)cc3cc(C4CCCC4)oc23)c1C` [Compound 18, 3-{4-[(2-Cyclopentyl-5-fluoro-1-benzofuran-7-yl)methoxy]-2,3-dimethylphenyl}propanoic acid], the negative logarithm of the EC50 (pEC50) was 5.78.
The same measure for `CCOc1ccc2cc(CC)oc2c1COc1ccc(CCC(=O)O)c(C)c1C` [Compound 66, 3-{4-[(6-Ethoxy-2-ethyl-1-benzofuran-7-yl)methoxy]-2,3-dimethylphenyl}propanoic acid]: 5.85.
